Results taken from the supplement of paper PMC11061612.

Assays:
Test in all cases: combination Emax (second highest fraction inhibited in the dose matrix, 72 h); higher = more inhibition; extreme values may be limits of the assay
[1] = test system: NTERA-2-cl-D1 (Other Solid Carcinomas)
Outline: (§1)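 Bliss excess equals the observed combination effect minus the expected value EA + EB − EA·EB, where EA and EB are the effects of each agent alone. Combination Emax is the second-highest inhibition within the matrix. Inhibition was scaled from CellTiter-Glo 2.0 luminescence, with 0 set by vehicle wells and 1 by blank wells, after 72 hours of two-drug dosing of cells plated in 1536-well plates.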

[2] = test system: SNU-1 (Gastric Carcinoma)
Outline: as §1

[3] = test system: MRK-nu-1 (Breast Carcinoma)
Outline: as §1

[4] = test system: GRANTA-519 (B-Cell Non-Hodgkin's Lymphoma)
Outline: as §1

[5] = test system: HT-3 (Cervical Carcinoma)
Outline: as §1

[6] = test system: HT-1197 (Bladder Carcinoma)
Outline: as §1

[7] = test system: ATN-1 (T-Lymphoblastic Leukemia)
Outline: as §1

HT-144 (Melanoma) = test system: HT-144 (Melanoma)
Outline: as §1

[8] = test system: NCI-H1944 (Lung Adenocarcinoma)
Outline: as §1

[9] = test system: NCI-H2009 (Lung Adenocarcinoma)
Outline: as §1

[10] = test system: KNS-62 (Squamous Cell Lung Carcinoma)
Outline: as §1

[11] = test system: NCI-H1648 (Lung Adenocarcinoma)
Outline: as §1

[12] = test system: NCI-H835 (Other Solid Carcinomas)
Outline: as §1

[13] = test system: NCI-H1048 (Small Cell Lung Carcinoma)
Outline: as §1

[14] = test system: IGROV-1 (Ovarian Carcinoma)
Outline: as §1

[15] = test system: SW1463 (Colorectal Carcinoma)
Outline: as §1

[16] = test system: Daudi (Burkitt's Lymphoma)
Outline: as §1

[17] = test system: COR-L105 (Lung Adenocarcinoma)
Outline: as §1

[18] = test system: SUP-HD1 (Hodgkin's Lymphoma)
Outline: as §1

[19] = test system: MDA-MB-175-VII (Breast Carcinoma)
Outline: as §1

Row | Structure (SMILES) | combination Emax [1] | combination Emax [2] | combination Emax [3] | combination Emax [4] | combination Emax [5] | combination Emax [6] | combination Emax [7] | combination Emax (HT-144 (Melanoma)) | combination Emax [8] | combination Emax [9] | combination Emax [10] | combination Emax [11] | combination Emax [12] | combination Emax [13] | combination Emax [14] | combination Emax [15] | combination Emax [16] | combination Emax [17] | combination Emax [18] | combination Emax [19]
1 | COc1cc2c(cc1OCCCCCOc1cc3c(cc1OC)C(=O)N1C=C(C)C[C@H]1C=N3)N=C[C@@H]1CC(C)=CN1C2=O [SG3199] + O=C(c1cc(Cc2n[nH]c(=O)c3ccccc23)ccc1F)N1CCN(C(=O)C2CC2)CC1 [Olaparib] (first compound max 0.001 µM, 7x7, partner max 10 µM) | 0.457 | 0.353 | 0.223 | 0.324 | 0.0808 | 0.166 | 0.0857 | 0.232 | 0.192 | 0.144 | 0.0885 | 0.129 | 0.169 | 0.387 | 0.358 | 0.0306 | 0.245 | 0.0843 | 0.456 | 0.0059
2 | C[C@@H](c1ccc2nccn2c1)n1nnc2ncc(-c3cnn(C)c3)nc21 [Savolitinib] + CC1(C)CCC(CN2CCN(c3ccc(C(=O)NS(=O)(=O)c4ccc(NCC5CCOCC5)c([N+](=O)[O-])c4)c(Oc4cnc5[nH]ccc5c4)c3)CC2)=C(c2ccc(Cl)cc2)C1 [Venetoclax] (first compound max 1 µM, 7x7, partner max 1 µM) | 0.257 | 0.188 | 0.449 | 0.306 | 0.137 | 0.173 | 0.186 | 0.117 | 0.128 | 0.204 | 0.0888 | 0.153 | 0.148 | 0.178 | 0.152 | 0.247 | 0.109 | 0.186 | 0.792 | 0.2
3 | Cc1cc2ncnn2cc1Nc1ncc2c(n1)n(C1CCOCC1)c(=O)n2C [AZD7648] + CN(C)CCCOc1ccc(-c2ccc3ncc4c(c3c2)n(C2CCOCC2)c(=O)n4C)cn1 [AZD0156] (first compound max 10 µM, 7x7, partner max 1 µM) | 0.484 | 0.193 | 0.515 | 0.249 | 0.143 | 0.194 | 0.481 | 0.218 | 0.29 | 0.14 | 0.235 | 0.508 | 0.36 | 0.407 | 0.584 | 0.159 | 0.444 | 0.339 | 0.199 | 0.288
4 | C[C@@H](c1ccc2nccn2c1)n1nnc2ncc(-c3cnn(C)c3)nc21 [Savolitinib] + Cc1c2c(nn1C)CSCc1cc(n(C)n1)CSc1cc(c3ccccc3c1)OCCCc1c(C(=O)O)n(C)c3c-2c(Cl)ccc13 [AZD5991] (first compound max 1 µM, 7x7, partner max 1 µM) | 0.422 | 0.454 | 1 | 0.141 | 0.207 | 0.195 | 0.904 | 0.833 | 0.184 | 0.217 | 0.141 | 0.453 | 0.177 | 0.196 | 0.157 | 0.255 | 0.196 | 0.165 | 0.62 | 0.185
5 | Cc1cc2ncnn2cc1Nc1ncc2c(n1)n(C1CCOCC1)c(=O)n2C [AZD7648] + CCN(CCO)CCCOc1ccc2c(Nc3cc(CC(=O)Nc4cccc(F)c4)[nH]n3)ncnc2c1 [AZD2811] (first compound max 10 µM, 7x7, partner max 1 µM) | 0.554 | 0.239 | 0.824 | 0.414 | 0.231 | 0.291 | 0.832 | 0.327 | 0.415 | 0.335 | 0.326 | 0.547 | 0.36 | 0.706 | 0.566 | 0.27 | 0.508 | 0.31 | 0.434 | 0.323
6 | Cc1nc(Nc2ncc(C(=O)Nc3c(C)cccc3Cl)s2)cc(N2CCN(CCO)CC2)n1 [Dasatinib] + CC(=O)Nc1cccc(-n2c(=O)n(C3CC3)c(=O)c3c(Nc4ccc(I)cc4F)n(C)c(=O)c(C)c32)c1 [Trametinib] (first compound max 2 µM, 7x7, partner max 1 µM) | 0.504 | 0.475 | 0.254 | 0.205 | 0.157 | 0.554 | 0.591 | 0.703 | 0.65 | 0.916 | 0.564 | 0.876 | 0 | 0.144 | 0.956 | 0.786 | 0.635 | 0.806 | 0.202 | 0.513
7 | Cc1cc2ncnn2cc1Nc1ncc2c(n1)n(C1CCOCC1)c(=O)n2C [AZD7648] + C=CCn1c(=O)c2cnc(Nc3ccc(N4CCN(C)CC4)cc3)nc2n1-c1cccc(C(C)(C)O)n1 [AZD1775] (first compound max 10 µM, partner max 1 µM) | 0.476 | 0.628 | 0.596 | 0.8 | 0.401 | 0.521 | 1 | 0.611 | 0.583 | 0.566 | 0.314 | 0.774 | 0.69 | 0.747 | 0.819 | 0.411 | 0.809 | 0.492 | 0.785 | 0.38
8 | Cc1cc2ncnn2cc1Nc1ncc2c(n1)n(C1CCOCC1)c(=O)n2C [AZD7648] + C[C@@H]1COCCN1C2=NC(=NC(=C2)C3(CC3)[S@](=N)(=O)C)C4=C5C=CNC5=NC=C4 [AZD6738] (first compound max 10 µM, 7x7, partner max 10 µM) | 0.617 | 0.788 | 0.633 | 0.808 | 0.536 | 0.419 | 0.995 | 0.753 | 0.77 | 0.339 | 0.526 | 0.779 | 0.389 | 0.508 | 0.66 | 0.543 | 0.826 | 0.531 | 0.751 | 0.341
